Laboratory results reported in ChEMBL document CHEMBL3351377, “Scaffold hopping towards potent and selective JAK3 inhibitors: discovery of novel C-5 substituted pyrrolopyrazines” (Bioorg Med Chem Lett, 2014).

Target: Tyrosine-protein kinase JAK1 (Homo sapiens, UniProt P23458)

Row | SMILES | IC50 [µM]
1 | CC[C@H](CO)Nc1ncc(-c2cnc3[nH]ccc3n2)c(N[C@H]2CCCN(S(C)(=O)=O)C2)n1 | 0.287
2 | CN1CCN(c2ncc(-c3cnc4[nH]ccc4n3)c(N[C@H]3CCCN(S(C)(=O)=O)C3)n2)CC1 | 0.189
